{
  "source": "patent US20140045764A1",
  "about": "“NEUROPROTECTIVE PEPTIDES” (Neurim Pharmaceuticals (1991) Ltd., priority 2012, published 2014)",
  "key": {"[1]": {"assay": "Pharmacokinetics after subcutaneous administration in rats (plasma, LC-MS/MS)", "format": "in vivo, Sprague Dawley rats", "details": "subcutaneous 1 mg/kg; for Cmax: male, Sprague-Dawley, sc, rat plasma, read-out: apparent Cmax", "description": "The pharmacokinetics of the peptides was evaluated following SC peptide administration in male Sprague Dawley rats. Peptide solution was prepared using phosphate buffer saline (pH 7.4) as vehicle and was administered through subcutaneously at the dose of 1 mg/kg with dosing volume of 2 mL/kg.\nBlood samples were collected at 0 (pre-dose) and 0.17, 0.5, 1, 2, 4, 8 and 24 hours following administration. At each time point, approximately 0.25 mL of blood was withdrawn through jugular vein of the cannulated rats and transferred to a pre-labeled microfuge tube containing 200 mM K2EDTA (20 μL per mL of blood). Following sampling equal volume of heparinized saline was flushed in to catheter. Blood samples were centrifuged at 5000 g for 5 minutes at 4±2° C. All the plasma samples were stored below −70° C. until analysis. A fit-for-purpose LC-MS/MS method was used for the quantification of the peptides in plasma samples. The lower limit of quantification (LLOQ) was 22.34 ng/mL."}, "MPTP-treated mice": {"system": "MPTP-treated mice", "assay": "MPTP mouse Parkinson's model, striatal dopamine and metabolites by HPLC", "format": "in vivo, C57BL mice", "details": "for DA / DOPAC / HVA: striatal level, peptide 1 mg/kg intranasal, divided by total protein and normalized to vehicle treated mice", "description": "C57BL mice (all male, age 8-12 weeks, obtained from Harlan Laboratories Israel) were administered with 18 mg/kg MPTP (Sigma-Aldrich) at a dosage volume of 100 μl/mouse by intraperitoneal (IP) injection twice daily, 3 hrs apart on days 1 and 2. On study day 0 and for 8 consecutive days, mice were administered intranasally with PBS (vehicle) or one of the peptides at 1 mg/kg in 12 μl/mouse. All peptides used in in vivo studies were synthesized by LifeTein and were modified with N terminal acetylation and C terminal amidation. For intranasal instillation, each mouse was mildly anesthetized (2.5% Isoflurane) then restrained and held with the neck parallel to the table while a total volume of 12 μl was administered into the nostril. Six (6) μl was administered to the left nostril as two 3 μl drops, followed by a 15 sec hold, and 6 μl was administered to the right nostril as two 3 μl drops, followed by a 15 seconds hold. On day 8 the animals were euthanized by cervical dislocation. Immediately after euthanasia, the brains were removed and the striata dissected (left and right striatum were pooled), weighed and frozen in dry ice. The striata samples were homogenized in a solution containing 0.1 M perchloric acid and 10 ng/ml 3,4 dihydroxybenzylamine (DHBA) by 5 seconds sonication at 80 W. The supernatants of each tissue extract were injected directly to HPLC pump (Jasco PU-2080Plus) onto a reverse phase column (GL-Science, Inertsil ODS-2 5 um 4.6×150 mm at room temperature) coupled to an electrochemical detector Coulochem II ESA with a conditioning cell model 5021 and analytical cell model 5011. The working potential was set to 0.35V on the conditioning cell and 0.1V and −0.35V on the analytical cell. The mobile phase was 0.05M monobasic sodium phosphate, with 80 mg/L EDTA, 125 mg/L heptane sulfonic acid, 55 ml of methanol and 50 ml of acetonitrile pH=2.7. The flow rate was 1.5 ml/min. The dopamine, DOPAC and HVA values were normalized to the lysate protein concentration (BCA kit, Pierce).\nIn this model, repeated itraperitoneal injections of MPTP (18 mg/kg at 3-h intervals on two consecutive days) result in dopaminergic neuronal death in the substantia nigra and dopamine depletion of the striatum. The peptides (or vehicle) were applied twice daily by intranasal instillation at 1 mg/kg starting 1 day prior to exposure to MPTP and continued until the end of the study. 7 days after the injection of MPTP mice were sacrificed and striatal levels of dopamine (DA), […] (DOPAC) and homovanillic acid (HVA) were evaluated by HPLC.\nSpecifically Table 2 illustrates the effect of human V6 and V 10-derived peptides (1 mg/kg, intranasal administration) on the striatal level of dopamine and metabolites in MPTP-treated mice. Mice were treated according to the protocol described in the Materials and Methods. Striatal levels of DA, DOPAC and HVA were determined by HPLC, divided by the total protein content value and normalized to the levels obtained in vehicle treated mice. Groups 1 and 3 treated with 1:1 mix of normal designated and retro-inverso analog (D amino acids at reversed sequence). Group 6 was treated with 1:1 mix of 10B2.5—6 and 10B2.5—9 peptides."}, "[2]": {"system": "N2A mouse neuroblastoma cells", "assay": "Protection of N2A cells from 6-OHDA (viability, alamar blue)", "format": "cell-based", "details": "30 or 40 μM 6-OHDA 22 hrs, peptide 10 fM and 1 μM", "description": "All peptides were synthesized by LifeTein (South Pleinfield, N.J., USA) at >95% purity. N2A mouse neuroblastoma and SK-N-SH human neuroblastoma (ATCC) were maintained in Dulbecco's modified Eagle's medium supplemented with 10% fetal calf serum, L-Glut and 1% Penicillin-Streptomycin (Beit Haemek, Israel). Cells were maintained in an incubator at 37° C. with 5% CO2. SK-N-SH cells were treated with 3 μM RA (Sigma-Aldrich) for 5 days prior to each experiment to allow the cells to differentiate towards neuronal cells. […] The intensity of the water soluble dye is proportional to the number of metabolic active cells. […] The viability assay was followed by caspase 3 assay (EnzChek Caspase3 Assay kit, Invitrogen, Carlsbad, Calif., USA) according to the manufacture's instructions\nAll methods are the same as in Example 1 above. Peptides and 6-hydroxydopamine were purchased from Sigma-Aldrich (St. Lewis, USA).\nThese peptides were screened for their protective effect on 6-hydroxydopamine (6-OHDA) treated N2A cells at 1 pM concentration. 6-OHDA is a dopamine analogue that is commonly used in model systems to mimic Parkinson's disease in vitro and in vivo, 6-OHDA induces apoptosis through release of reactive oxygen species (ROS) and by a possible direct effect on the mitochondrial respiratory chain. […] The protective effect of some of the peptides was tested in a wide dose range. […] The peptide panel was also tested for their effect on Aβ (25-35) induced toxicity in SK-N-SH human neuroblastoma cells at pM concentration. The profile of peptides effective against the Aβ stress was strikingly different than the 6-OHDA-effective peptides (FIGS. 7A-B).\nThe peptides shown on Table 3 were tested for their effect in protecting N2A from 6-OHDA (FIG. 8). […] Such modifications include C-terminus truncation (26-1, 26-2 and 26-3), replacement of the N-terminal glutamic acid residue with glutamine and histidine at position 7 with alanine (26-8 and 26-9, respectively)."}, "[3]": {"system": "Aβ(1-42) microinjection rat model", "assay": "Aβ(1-42) microinjection rat model, IH/ICV peptide, novel object recognition", "format": "in vivo, Sprague Dawley rats", "details": "21 days after Aβ injection, p<0.01 versus vehicle", "description": "Aβ(1-42) (Sigma-Aldrich, USA), was dissolved in filtered PBS at the concentration of 6 μg/μl, and the solution kept at 37° C. for 2 days before use. One microliter of the solution was injected by means of a microsyringe into the right hippocampus under sodium pentobarbital (55 mg/kg i.p.) anesthesia at the stereotaxic coordinates: AP=−3.6, ML=2.0, from Bregma and DV=3.0 from the skull. Control rats were injected with 1 μl of PBS. In the IH/ICV study, 1 μl of the peptide or PBS was also injected into the right hippocampus at the same stereotaxic coordinates.\nFor ICV injection, a microinjection cannula was planted into the lateral cerebral ventricle according to the following stereotaxic coordinates: AP=−1, ML=1.6, DV=3.8. […]\nThe training apparatus was a black Plexiglas box (50×50×40 cm) placed in a sound-attenuating cabinet which was located in a brightly lit and isolated room. […] During the training trial, the rat was placed in the box and allowed to explore two identical objects for 10 min and the total time spent exploring both objects was recorded. […] The rat was placed in the box for 3 min and the time spent exploring each object and the total time spent exploring both objects were recorded. The discrimination index used to assess memory was calculated as the difference in time exploring the novel and familiar object, expressed as the ratio of the total time spent exploring both objects. […]"}, "[4]": {"system": "Met tyrosine kinase receptor", "details": "literature reference [24]; cited from earlier work"}},
  "note": "Marks after values point to notes of the source that are not given here.",
  "data": [
    {"molecule": "CC(=O)N1CCC[C@@H]1C(=O)N[C@H](Cc1ccc(O)cc1)C(=O)N[C@H](Cc1c[nH]cn1)C(=O)N[C@H](CO)C(=O)N[C@@H](C(=O)N[C@H](Cc1ccc(O)cc1)C(=O)NCC(=O)N[C@H](CCC(=O)O)C(N)=O)[C@H](C)O", "note": "(relative stereo) [26-RI, *P*Y*H*S*T*Y*G*E]", "values": [
      {"measurement": "Cmax", "setting": "[1]", "result": 1230, "unit": "ng/mL"},
      {"measurement": "improvement of Cmax compared to P26", "setting": "[1]; rat", "result": 10, "unit": "fold"}
    ]},
    {"molecule": "Ac-EGYTSHYP-NH2 (N-terminus and C-terminus assumed) [V10A1_N+4, EGYTSHYP]", "values": [
      {"measurement": "Cmax", "setting": "[1]", "result": 130, "unit": "ng/mL"}
    ]},
    {"molecule": "EDSH (Human V6B1_C4 peptide) [hV6B1_C4]", "values": [
      {"measurement": "DA", "setting": "MPTP-treated mice", "result": 20.7},
      {"measurement": "DOPAC", "setting": "MPTP-treated mice", "result": 41.7},
      {"measurement": "HVA", "setting": "MPTP-treated mice", "result": 16.6}
    ]},
    {"molecule": "EGYTS (Human 26-3 peptide)", "values": [
      {"measurement": "activity in protecting N2A from 6-OHDA", "setting": "[2]", "result": "maintaining at least partial activity"}
    ]},
    {"molecule": "EGYTSAYP (Human 26-9 peptide)", "values": [
      {"measurement": "activity in protecting N2A from 6-OHDA", "setting": "[2]", "result": "maintaining at least partial activity"}
    ]},
    {"molecule": "EGYTSH (Human 26-2 peptide)", "values": [
      {"measurement": "activity in protecting N2A from 6-OHDA", "setting": "[2]", "result": "maintaining at least partial activity"}
    ]},
    {"molecule": "EGYTSHY (Human 26-1 peptide)", "values": [
      {"measurement": "activity in protecting N2A from 6-OHDA", "setting": "[2]", "result": "maintaining at least partial activity"}
    ]},
    {"molecule": "FGVTAVTV (Human V10B1_8 peptide (also referred to as P34))", "values": [
      {"measurement": "effect on striatal DA level compared to the vehicle control", "setting": "MPTP-treated mice; 1 mg/kg intranasal", "result": "significantly positive effect"},
      {"measurement": "levels of at least one of the 2 DA metabolites, DOPAC and HVA", "setting": "MPTP-treated mice; 1 mg/kg intranasal", "result": "increased significantly"},
      {"measurement": "DA", "setting": "MPTP-treated mice", "result": "46.6 *"},
      {"measurement": "DOPAC", "setting": "MPTP-treated mice", "result": "75.9 **"},
      {"measurement": "HVA", "setting": "MPTP-treated mice", "result": "83.3 **"},
      {"measurement": "discrimination index, novel object recognition", "setting": "[3]; 10 ng/rat IH/ICV", "result": "increased significantly"},
      {"measurement": "discrimination index, novel object recognition", "setting": "[3]; 100 ng/rat IH/ICV", "result": "increased significantly"}
    ]},
    {"molecule": "NRWHE (A pentapeptide derived from the human V6)", "values": [
      {"measurement": "inhibiting hepatocyte growth factor (HGF) signal transduction through Met tyrosine kinase receptor", "setting": "[4]", "result": "capable of inhibiting"}
    ]},
    {"molecule": "NVNRSL (Human V10B2.5_6 peptide)", "values": [
      {"measurement": "levels of at least one of the 2 DA metabolites, DOPAC and HVA", "setting": "MPTP-treated mice; 1 mg/kg intranasal", "result": "increased significantly"}
    ]},
    {"molecule": "NVNRSLSGD (Human V10B2.5_9 peptide)", "values": [
      {"measurement": "levels of at least one of the 2 DA metabolites, DOPAC and HVA", "setting": "MPTP-treated mice; 1 mg/kg intranasal", "result": "increased significantly"}
    ]},
    {"molecule": "PVTSAKTGSFG [V10A/B_S]", "values": [
      {"measurement": "DA", "setting": "MPTP-treated mice", "result": 26.6},
      {"measurement": "DOPAC", "setting": "MPTP-treated mice", "result": 27.2},
      {"measurement": "HVA", "setting": "MPTP-treated mice", "result": 13.7}
    ]},
    {"molecule": "QGYTSHYP (Human 26-8 peptide)", "values": [
      {"measurement": "activity in protecting N2A from 6-OHDA", "setting": "[2]", "result": "maintaining at least partial activity"}
    ]},
    {"molecule": "TTLLEG (Human V10A1_N6 peptide)", "values": [
      {"measurement": "DA", "setting": "MPTP-treated mice", "result": 17.7},
      {"measurement": "DOPAC", "setting": "MPTP-treated mice", "result": 24.3},
      {"measurement": "HVA", "setting": "MPTP-treated mice", "result": "−0.7"}
    ]},
    {"molecule": "hV10A2: human CD44V10-derived peptide, SEQ ID NO: 12; sequence not printed (TKESRTFIPVTSAKT; Human V10A2 peptide)", "values": [
      {"measurement": "levels of at least one of the 2 DA metabolites, DOPAC and HVA", "setting": "MPTP-treated mice; 1 mg/kg intranasal", "result": "increased significantly"},
      {"measurement": "DA", "setting": "MPTP-treated mice", "result": 24.7},
      {"measurement": "DOPAC", "setting": "MPTP-treated mice", "result": "54.8 *"},
      {"measurement": "HVA", "setting": "MPTP-treated mice", "result": "73.4 **"}
    ]},
    {"molecule": "hV10B3: human CD44V10-derived peptide, SEQ ID NO: 15; sequence not printed (SLSGDQDTFHPSG; Human V10B3 peptide)", "values": [
      {"measurement": "levels of at least one of the 2 DA metabolites, DOPAC and HVA", "setting": "MPTP-treated mice; 1 mg/kg intranasal", "result": "increased significantly"},
      {"measurement": "DA", "setting": "MPTP-treated mice", "result": 18.1},
      {"measurement": "DOPAC", "setting": "MPTP-treated mice", "result": 22.5},
      {"measurement": "HVA", "setting": "MPTP-treated mice", "result": "44.2 *"}
    ]}
  ]
}
